We go through 22 molecules from PubChem BioAssay (NCI).

Where “and” joins values, the source holds several entries; their conditions need not be identical. Equal values may be shown once.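 Method: 48-hour compound exposure of cells in 96-well plates, five concentrations, linear interpolation of endpoints. Abbreviation: GI50, concentration required for 50% inhibition of growth. TGI: total growth inhibition.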

What all share (test): NCI anticancer screen, dose series, 48 h
For test [1], the system named is NCI-H226 lung.
In test [2] the test system is SR leukemia.
In test [3] the test system is A549 NSCLC.
In test [4] the test system is NCI-H460 lung.
Test [5] deals with HCT-116 colon.
In test [6] the test system is MDA-MB-231 breast.
Test [7] relates to SK-MEL-28 melanoma.
Test [8] relates to RPMI-8226 leukemia.
For test [9], the system named is BT-549 breast.
Test [10] has as its system HOP-62 NSCLC.
Test [11] deals with HOP-92 NSCLC.
For test [12], the system named is IGROV1 ovarian.

Consider `CN(C)Cc1cc(C(C)(C)C)ccc1-c1ccc(C(C)(C)C)cc1CN(C)C`, for which the TGI in [1], in test [2], in test [3], in [4], in test [5] and in test [6] was greater than 100 µM throughout. For the same molecule, the TGI in [7], in test [8], in [9], in test [10], in test [11] and in test [12] was greater than 100 µM each time.

`CCN(CC)CCCn1c(=O)c2ccccc2n2c3c(=O)n(C)c(=O)n(C)c3nc12`: the TGI in [1] came to 14.3 µM; in [2], 3.37 µM; in test [3], 10.4 µM; in test [4], 4.06 µM; in [5], 21.6 µM; in [6] it was 30.1 µM. The TGI is 30.2 µM in [7]; 49.7 µM in [8]; 17.6 µM in test [9]; 15.1 µM in [10]; 16.4 µM in test [11]; 26.2 µM in test [12].

On to `O=C1CC(=O)NC(=NN2C(=O)/C(=C/c3ccccc3)N=C2c2ccccc2)N1`, for which the TGI in [1], in [2], in test [3], in test [4], in [5] and in [6] was greater than 100 µM in each case. For the same molecule, the TGI in [7] is greater than 100 µM; in test [8], greater than 100 µM; in test [9], 77.1 µM; in [10], greater than 100 µM; in test [11], greater than 100 µM; in [12] it was greater than 100 µM.

Consider `O=C1O[C@H]2[C@H](O)[C@@H](OC(=O)c3cc(O)c(O)c4c3[C@@H]3C1=CC(=O)C(O)(O)C3(O)O4)[C@H](OC(=O)c1cc(O)c(O)c(O)c1)O[C@@H]2CO` (some centres undefined), for which the TGI in test [1], in test [2], in test [3], in test [4], in test [5] and in [6] was greater than 100 µM throughout. Further, the TGI in test [7], in test [8], in [9], in test [10], in [11] and in test [12] was greater than 100 µM in each case.

`Oc1ccccc1C=Nc1ccc(-c2nc3ccccc3[nH]2)cc1`: the TGI in [1], in [2], in test [3], in test [4], in test [5] and in test [6] was greater than 100 µM in each case. Further, the TGI was greater than 100 µM in test [7]; greater than 100 µM in test [8]; 54.4 µM in test [9]; greater than 100 µM in test [10]; greater than 100 µM in test [11]; greater than 100 µM in [12].

Take `Cc1nc2c(nc1C)-c1c(c3c(n1C)C(=O)CCC3)C(=O)C2=O`: the TGI was determined as 2.77 µM in test [1]; 0.769 µM in test [2]; 4.56 µM in test [3]; 2.7 µM in test [4]; 1.44 µM in test [5]; 0.803 µM in test [6]. The TGI in test [7] turned out to be 1.88 µM; in [8], 0.636 µM; in test [9] it was 0.289 µM; in test [10] it was 2.37 µM; in test [11], 2.94 µM; in test [12], 1.48 µM.

In the case of `COC1C(O)C(C)OC(OC2C(Oc3cccc4c(O)c5c(=O)oc6ccc(C)c7c(=O)oc(c34)c5c67)OC(C)C(O)C2O)C1O` (centres undefined), the GI50 in test [1] was 1.66 µM; in test [3], 5.48 µM; in test [7] it was 1.87 µM; in test [8], 1.25 µM; in test [10] it was 1.01 µM; in [11], 2.43 µM. In addition, the GI50 in test [12] is 3.08 µM. Also, the TGI in [1] is 5.15 µM and 4.17 µM; in test [2], 6.47 µM; in [3], 53 µM and 40.4 µM; in [4], 9.07 µM and 13.1 µM; in test [5] it was 3.4 µM and 5.71 µM; in [6] it was 8.67 µM. Also, the TGI is 6.85 µM and 4.93 µM in test [7]; 15.9 µM and 6.88 µM in test [8]; 7.83 µM in test [9]; 6.38 µM and 5.29 µM in [10]; > 69.9 µM and 12.9 µM in [12].

Turning to `CC(C)(C)c1cc2c(O)c(c1)Cc1cc(C(C#N)(Cc3ccc4ccccc4c3)Cc3ccc4ccccc4c3)cc(c1O)Cc1cc(C(C)(C)C)cc(c1O)Cc1cc(C(C#N)(Cc3ccc4ccccc4c3)Cc3ccc4ccccc4c3)cc(c1O)C2`, the TGI in test [1], in [2], in test [3], in test [4], in [5] and in [6] was greater than 100 µM throughout. In addition, the TGI in [7], in [8], in test [9], in test [10], in test [11] and in test [12] was greater than 100 µM in each case.

As to `OC[C@]1(n2nc3ccccc3n2)OC[C@@H]1c1ccccc1`, the TGI in test [1], in test [2], in test [3], in [4], in test [5] and in test [6] was greater than 100 µM in each case. In addition, the TGI in test [7] is greater than 100 µM; in test [8], 97.4 µM; in test [9], 99.5 µM; in test [10], greater than 100 µM; in test [11] it was greater than 100 µM; in test [12], greater than 100 µM.

Turning to `Cc1ccc2c(n1)C(=O)C=CC2=O`, the TGI in test [1] was 42.8 µM; in [2], greater than 100 µM; in [3], 41.2 µM; in [4] it was 36.2 µM; in test [5], 4.12 µM; in [6], 19.5 µM. Further, the TGI in test [7] is 15.3 µM; in test [8], 11 µM; in test [9], 31.5 µM; in test [10], greater than 58.3 µM; in test [11], 13.7 µM; in test [12] it was 29.3 µM.

Consider `N#CC(=C1CCCCC1)c1nc2ccccc2o1`, for which the TGI in test [1], in test [2], in test [3], in test [4], in [5] and in [6] was greater than 100 µM in each case. Moreover, the TGI in test [7] was greater than 100 µM; in [8], 71.3 µM; in test [9], 89.1 µM; in test [10] it was greater than 100 µM; in test [11], greater than 100 µM; in [12] it was greater than 100 µM.

`CCN(CC)C(=S)SS(=O)(=O)c1ccc(Cl)cc1`: the TGI in test [1] was greater than 100 µM; in test [2], 21.1 µM; in test [3], greater than 100 µM; in test [4], greater than 100 µM; in test [5] it was greater than 100 µM; in test [6], greater than 100 µM. For the same molecule, the TGI was 34.4 µM in test [7]; 43.2 µM in test [8]; greater than 100 µM in [9]; 65.7 µM in test [10]; 50.4 µM in test [11].

In the case of `O=C(O)Cc1ccc(Oc2nc3ccccc3nc2C(=O)O)cc1`, the TGI in test [1], in [2], in test [3], in test [4], in test [5] and in test [6] was greater than 100 µM each time. Moreover, the TGI in test [7], in test [8], in test [9], in test [10], in [11] and in test [12] was greater than 100 µM each time.

`C=C(C)C1CC/C(C)=C/CC[C@]2(C)O[C@H]2CC/C(COC(C)=O)=C\[C@@H]1O` (some centres undefined): the TGI in test [1], in [2], in test [3], in test [4], in [5] and in test [6] was greater than 50 µM throughout. In addition, the TGI in [7], in [8], in [9], in [10], in [11] and in test [12] was greater than 50 µM each time.

Consider `CC(C)OP(=O)(OC(C)C)/C(C#N)=C/c1ccco1`, for which the TGI in [1], in [2], in test [3], in test [4], in [5] and in [6] was greater than 100 µM in each case. The TGI in test [7], in test [8], in test [9], in test [10], in test [11] and in test [12] was greater than 100 µM throughout.

Turning to `Cc1nn(C(=O)c2ccncc2)c2c1C(c1ccccc1)SC(N)=N2` (centres undefined), the TGI in test [1], in [2], in test [3], in test [4], in test [5] and in test [6] was greater than 10 µM in each case. In addition, the TGI in test [7], in [8], in test [9], in test [10], in test [11] and in [12] was greater than 10 µM throughout.

With `Nc1ncc(Cl)c(NCC2(CO)CC(CCc3ccccc3)C2)n1` (centres undefined), the TGI in [1], in [2], in [3], in [4], in [5] and in [6] was greater than 100 µM each time. For the same molecule, the TGI in test [7], in test [8], in [9], in [10], in test [11] and in test [12] was greater than 100 µM throughout.

With `O=C(Nc1c(C(F)(F)F)cc(-c2ccccc2)[nH]c1=O)N1CCOCC1`, the TGI in test [1], in [2], in [3], in test [4], in test [5] and in [6] was greater than 100 µM each time. Also, the TGI in test [7], in test [8], in test [9], in [10], in test [11] and in test [12] was greater than 100 µM in each case.

Consider `CC=CCOc1cc(NC(=S)OC(C)C)ccc1Cl` (mixture of isomers), for which the TGI in [1] came out at 33 µM; in [2], 44.6 µM; in [3], 33.1 µM; in [4], 31.8 µM; in test [5], 33.6 µM; in test [6], 51.5 µM. Besides, the TGI in [7] was 33.7 µM; in test [8], greater than 100 µM; in [9], 38.6 µM; in test [10], 45.4 µM; in test [11] it was 24.9 µM; in [12], 43.2 µM.

With `Cc1cc(-c2nc3ccccc3s2)ccc1N`, the TGI in [1] was greater than 92 µM; in test [2] it was greater than 89.8 µM; in [3] it was greater than 100 µM; in test [4], greater than 71.7 µM; in test [5], greater than 78.7 µM; in test [6] it was greater than 88.2 µM. The TGI in test [7] is greater than 100 µM; in [8], greater than 100 µM; in [9], greater than 84.3 µM; in test [10], greater than 100 µM; in test [11], greater than 100 µM; in test [12], greater than 100 µM.

On to `CCN(CC)CCNC(=O)c1ccc(I)cc1`, for which the TGI in test [1], in test [2], in [3], in test [4], in test [5] and in test [6] was greater than 100 µM each time. In addition, the TGI in [7], in test [8], in test [9], in test [10], in [11] and in [12] was greater than 100 µM each time.

For `Cc1cc(N=Nc2c(O)ccc3ccccc23)ccc1N=Nc1cccc([N+](C)(C)C)c1`, the TGI is 30.2 µM in test [1]; greater than 100 µM in test [2]; greater than 52.2 µM in test [3]; 30.9 µM in [4]; 75.5 µM in [5]; 55.3 µM in test [6]. For the same molecule, the TGI in test [7] is 62.3 µM; in [8], greater than 46.5 µM; in test [9], 15.7 µM; in test [10] it was 43.2 µM; in test [11] it was greater than 100 µM; in test [12], greater than 22.2 µM.
